Assay results published in patent publication US20240041708A1, “DEHYDRATED SOAP AND CLEANER TABLET COMPOSITION” (HAPPY GO LUCKY LLC, priority 2022, published 2024).
Entries after “also recorded” stand apart in the source; their conditions may differ.

How the values were obtained:
Candida albicans = settings: fungus Candida albicans; cited from earlier work
algae = settings: cited from earlier work
bacteria = test: Inhibitory effect of IPBC against bacteria tested; assay type: cell-based
Excerpt: (§1) In Examples 1 and 2, the concentration of IPBC was in the 100 ppm to 160 ppm range. This range inhibits the growth of all three categories of microbes. An amount of 100 ppm is a minimum safe amount to inhibit most types of microbial growth.

fungus and yeast = test: Growth inhibition of fungus and yeast by IPBC; assay type: cell-based; settings: 100 ppm to 160 ppm
Excerpt: as §1

mold/mildew/yeast/fungi = settings: cited from earlier work
[1] = at comparable concentrations; cited from earlier work
environmental microbes = test: Rehydrated tablet stability testing (daily scent, clarity, particulates, pressure; pass/fail); settings: as preservative in Comparative Examples 3 and 4
Excerpt: The key goals for the present invention, given that it is intended to be used for bottles that will be refilled many times to reduce plastic waste, are for the rehydrated formula to: • (a) be stable once rehydrated, meaning that the solution would no discernible microbial growth over a multi-month period of time and would maintain its physical characteristics, and • (b) work within an acceptable manufacturing process (both physically and in terms of cost).
In terms of physical characteristics measured, once the test tablets had been rehydrated, several observables were tracked each day such as scent, clarity, presence of particulates and pressure.
Scent was measured by comparing the scent each day to the original scent of an initially rehydrated bottle. When microbial activity is present it can create compounds, which add a distinctly unpleasant odor to the compositions. 2 Given the sensitivity of the human nose to such compounds, this would be a clear aesthetic failure for the product even if overall microbial growth remained below a level that could be harmful or otherwise impact use.
Regarding clarity, initially rehydrated solutions are completely transparent. […]
Once the initial dissolution process is complete, a rehydrated solution should contain no free-floating particulates. The appearance of any particles within the solution was recorded and visually evaluated. […]

O=C([O-])c1ccccc1.[Na+] [sodium benzoate, reference compound]
MIC (Candida albicans): about 2500 ppm

iodopropynyl butylcarbamate [IPBC]
minimum inhibitory concentration (MIC) (algae): ≤ 50 ppm
concentration with inhibitory effect against most bacteria tested (bacteria): 100 ppm
inhibition of growth of fungus and yeast (fungus and yeast): significantly inhibits
minimum inhibitory concentration (MIC) (mold/mildew/yeast/fungi): ≤ 10 ppm
MIC (Candida albicans): about 8 ppm
comedogenicity [1]: noncomedogenic

benzalkonium chloride [BKC]
effectiveness in stability testing (preservation) (environmental microbes): somewhat effective; also recorded: better preservation than other non-IPBC-containing compositions tested
